Experimental data: the NIST ThermoML archive (doi:10.1021/je8001267)

Assay: wn = mass fraction of the nth substance listed
Details: Liquid

Cl.N [ammonium chloride (NH4Cl)] + N
mass density [kg/m3]
Details	303.15 K	313.15 K	323.15 K	333.15 K	343.15 K	353.15 K	363.15 K	373.15 K
10000 kPa, w1 = 0.1133	668.2	655.5	642.7	628.8	613.4	597.6	581.2	568.8
10000 kPa, w1 = 0.2224	729.3	716	707.1	694.9	682.5	669.2	654.5	644.4
10000 kPa, w1 = 0.3134	787.8	778.1	767.7	756.3	745.7	735.4	724.1	713.8
10000 kPa, w1 = 0.4285	833	825.9	817.4	809.5	801.9	793.4	784.2	776.9
10000 kPa, w1 = 0.5068	873.3	867.9	860	853.2	846	838	830.5	823.8
15000 kPa, w1 = 0.1133	673.3	660.5	648.4	634.7	620.3	605.7	588.8	577.2
15000 kPa, w1 = 0.2224	733.1	720.5	711.9	699.8	688.1	675.5	661.6	651.7
15000 kPa, w1 = 0.3134	791.5	783.6	772.6	761.1	751.6	741.5	731.7	721.3
15000 kPa, w1 = 0.4285	836.1	828.4	820.9	812.4	805.2	796.6	789.2	781.3
15000 kPa, w1 = 0.5068	877.7	871.7	864.7	857.9	850.6	844	837	830.3
20000 kPa, w1 = 0.1133	677.8	665.3	654.2	640.8	627.1	612.9	596.4	585.5
20000 kPa, w1 = 0.2224	736.6	725.1	715.8	704.3	692.5	680.2	667.3	657.3
20000 kPa, w1 = 0.3134	795.8	786.8	776.3	765.1	755	746.5	736.8	726.2
20000 kPa, w1 = 0.4285	838.2	831	823.4	814.4	807.6	799.5	792	784.1
20000 kPa, w1 = 0.5068	880.4	874.4	867.9	860.5	854.2	847.5	840.5	834
25000 kPa, w1 = 0.1133	682.2	670.1	658.7	646.7	633.1	619.7	603.4	593
25000 kPa, w1 = 0.2224	740.1	729.5	719.7	708.7	696.9	684.7	672.2	662.3
25000 kPa, w1 = 0.3134	798.5	789.7	779.4	768.2	758.3	750.3	741.5	730.7
25000 kPa, w1 = 0.4285	840.8	833.5	825.9	817.9	810	801.9	794.3	786.5
25000 kPa, w1 = 0.5068	883.2	876.6	870.6	863.1	857.4	850.1	843.5	837
30000 kPa, w1 = 0.1133	686.7	674.6	663.4	652.3	638.6	626.1	610.6	600.3
30000 kPa, w1 = 0.2224	743.8	734.2	723.4	712.9	701.2	689.2	677.3	667.2
30000 kPa, w1 = 0.3134	801.6	792.5	782.4	770.8	761.1	754	745.7	734.6
30000 kPa, w1 = 0.4285	842.9	835.6	827.4	820.4	812	804.2	796.4	788.7
30000 kPa, w1 = 0.5068	885.4	878.8	872.8	865.3	859.7	852.7	846	839.6
